Converted amounts (≈) assume the structure as drawn.
Experiments:
Pythium ultimum = conditions: 25 ppm
Phytophthora capsici = conditions: 25 ppm
[1] = tested on: Aspergillus niger (A. niger) - ATCC 6275; test: MIC test, broth two-fold serial dilution; assay type: cell-based; conditions: ATCC6275, complete inhibition of growth, read-out: MIC (ppm) for each compound
Experimental: (§1) Activity against certain bacteria and fungi was determined using a minimum inhibitory concentration (MIC) test, which establishes the minimum concentration of test compound required to achieve complete inhibition of growth of the test organism. An MIC value was obtained using a broth, two-fold serial dilution test performed as follows: […] A volume of the stock solution was dispensed into culture media to give an initial starting test concentration of 500 ppm compound. When the test was ready to be done, each vessel in the dilution series, except the first vessel, contained an equal volume of compound free broth. The first vessel contained twice the volume of broth with the starting concentration of test compound. One half of the broth from the first vessel was transferred to the second vessel. After being mixed, one half the resulting volume was removed from the second vessel and transferred to the third vessel. The entire cycle was repeated sufficiently to give a series of concentrations amounting to 500, 250, 125, 63, 31, 16, 8, and 4 ppm (or 25, 12.5, 6.2, 3.1, 1.6, 0.8, 0.4, 0.2), respectively. Each vessel was then inoculated with a cell suspension of the appropriate test organism. Bacteria were grown in broth and fungi on agar […] for a time and at a temperature appropriate to the species being tested. At the end of the growth period, the bacteria containing broth was vortexed to disperse the cells. In the case of fungi, the spores were harvested by pipetting water onto the slant and dislodging the spores with a sterile loop. The cell/spore suspension was standardized by controlling incubation time, temperature, and the volume of the diluent. The suspension was then used to inoculate the vessels containing the broth compound. The vessels were then incubated at the appropriate temperature. Alter the incubation, the vessels were examined for growth/no growth. The minimum inhibitory concentration (MIC) is defined as the lowest concentration of compound that results in complete inhibition of growth of the test organism. The organisms tested were bacteria Pseudomonas fluorescens (Ps.fl) - ATCC 948, Pseudomonas aeruginosa (Ps.ae) - ATCC 15442, Escherichia Coli (E.coli) - ATCC 11229, and Staphylococcus aureus (S.aur) - ATCC 6538; and fungi Aspergillus niger (A. niger) - ATCC 6275, Penicillium funiculosum (P. fun.) - ATCC 11797, Cladosporium resinae (A. res.) - ATCC 52833, Aureobasidium pullulans (A. pull.) - ATCC 9248, Cloeophyllum trabeuor (G. trab.) - ATCC 11539; and two yeasts Sacharomyces […].) - ATCC 560, and Rhorotorularubra (R. rubra) - ATCC 2503.

[2] = tested on: Staphylococcus aureus (S.aur) - ATCC 6538; test: MIC test, broth two-fold serial dilution; assay type: cell-based; conditions: ATCC6538, complete inhibition of growth, read-out: MIC (ppm) for each compound
Experimental: as §1

[3] = tested on: Pseudomonas aeruginosa (Ps.ae) - ATCC 15442; test: MIC test, broth two-fold serial dilution; assay type: cell-based; conditions: ATCC15442, complete inhibition of growth, read-out: MIC (ppm) for each compound
Experimental: as §1

[4] = tested on: Aureobasidium pullulans (A. pull.) - ATCC 9248; test: MIC test, broth two-fold serial dilution; assay type: cell-based; conditions: ATCC9248, complete inhibition of growth, read-out: MIC (ppm) for each compound
Experimental: as §1

[5] = tested on: Cloeophyllum trabeuor (G. trab.) - ATCC 11539; test: MIC test, broth two-fold serial dilution; assay type: cell-based; conditions: complete inhibition of growth, read-out: MIC (ppm) for each compound
Experimental: as §1

[6] = tested on: Pseudomonas fluorescens (Ps.fl) - ATCC 948; test: MIC test, broth two-fold serial dilution; assay type: cell-based; conditions: ATCC948, complete inhibition of growth, read-out: MIC (ppm) for each compound
Experimental: as §1

[7] = tested on: Penicillium funiculosum (P. fun.) - ATCC 11797; test: MIC test, broth two-fold serial dilution; assay type: cell-based; conditions: Talaromyces funiculosus, ATCC11797, complete inhibition of growth, read-out: MIC (ppm) for each compound
Experimental: as §1

[8] = tested on: Escherichia Coli (E.coli) - ATCC 11229; test: MIC test, broth two-fold serial dilution; assay type: cell-based; conditions: ATCC11229, complete inhibition of growth, read-out: MIC (ppm) for each compound
Experimental: as §1

[9] = tested on: Rhorotorularubra (R. rubra) - ATCC 2503; test: MIC test, broth two-fold serial dilution; assay type: cell-based; conditions: complete inhibition of growth, read-out: MIC (ppm) for each compound
Experimental: as §1

[10] = tested on: Sacharomyces cereresae (S. cer.) - ATCC 560; test: MIC test, broth two-fold serial dilution; assay type: cell-based; conditions: complete inhibition of growth, read-out: MIC (ppm) for each compound
Experimental: as §1

[11] = tested on: Cladosporium resinae (A. res.) - ATCC 52833; test: MIC test, broth two-fold serial dilution; assay type: cell-based; conditions: Amorphotheca resinae, ATCC52833; Cl.res.; complete inhibition of growth; read-out: MIC (ppm) for each compound
Experimental: as §1

Piricularia oryzae [12] = assay type: cell-based; conditions: in vitro, dose 25 ppm, relative to untreated check
Rhizoctonia solani = conditions: 25 ppm
Cochliobolus sativus = conditions: 25 ppm
Botrytis cinerea = conditions: 25 ppm
Septoria nodorum [13] = conditions: 25 ppm
Xanthomonas campestris = assay type: cell-based; conditions: in vitro, dose 25 ppm, relative to untreated check
Fusarium roseum = assay type: cell-based; conditions: in vitro, dose 25 ppm, relative to untreated check
[14] = tested on: Erysiphe graminis (f. sp. tritici); test: In vivo plant disease control test, wheat powdery mildew (WPM)
[15] = tested on: Pseudoperonospora cubensis; test: In vivo plant disease control test, cucumber downy mildew (CDM)
Piricularia oryzae [16] = assay type: in vivo; conditions: Nato rice plants, sprayed at 200 ppm before inoculation, seven to eight days after inoculation
Septoria nodorum [17] = test: In vivo plant disease control test, wheat glume blotch (WGB)
[18] = tested on: Puccinia recondita (f. sp. tritici Races PKB and PLD); test: In vivo plant disease control test, wheat leaf rust (WLR); conditions: Fielder wheat, 200 ppm, scored after 10 days
Phytophthora infestans = assay type: in vivo; conditions: Pixie tomato plants, sprayed at 200 ppm before inoculation, four days after inoculation

How did the “% DISEASE CONTROL PRU” value (Pythium ultimum) turn out when `O=c1oc2cc(Cl)ccc2n1CC#CI` [Y=6-Cl, X=I, 3-(3-iodopropargyl)-6-chloro-2-benzoxazolone] was run?
Its value is 95%.

What about the “% DISEASE CONTROL PHY” value (Phytophthora capsici) of the same compound?
The value was 100%.

What about the MIC [1] of the same compound?
Its MIC is less than 0.13 µg/mL.

What about the MIC [2] of the same compound?
Its MIC is 16 µg/mL (≈ 48 µM).

And the MIC [3]?
Its MIC is greater than 250 µg/mL.

And the MIC [4]?
The MIC was no more than 1 µg/mL.

What about the MIC [5] of the same compound?
The MIC was no more than 1 µg/mL.

And the MIC [6]?
The MIC was 16 µg/mL (≈ 48 µM).

And the MIC [7]?
The MIC was no more than 1 µg/mL.

And the MIC [8]?
The MIC was greater than 250 µg/mL.

What about the MIC [9] of the same compound?
Its MIC is no more than 1 µg/mL.

And the MIC [10]?
Its MIC is no more than 5 µg/mL.

And the MIC [11]?
The MIC was no more than 1 µg/mL.

What about the “% DISEASE CONTROL PIR” value (Piricularia oryzae [12]) of the same compound?
The value was 100%.

What about the “% DISEASE CONTROL RMI” value (Rhizoctonia solani) of the same compound?
Its value is 100%.

And the “% DISEASE CONTROL HEL” value (Cochliobolus sativus)?
The value was 100%.

What about the “% DISEASE CONTROL BOC” value (Botrytis cinerea) of the same compound?
Its value is 100%.

What about the “% DISEASE CONTROL SEP” value (Septoria nodorum [13]) of the same compound?
The value was 100%.

What about the “% DISEASE CONTROL XAN” value (Xanthomonas campestris) of the same compound?
The value was 0%.

And the “% DISEASE CONTROL FUS” value (Fusarium roseum)?
The value was 100%.

With `O=c1oc2ccccc2n1CC#CI` [Y=H, X=I, 3-(3-iodopropargyl)-2-benzoxazolone] as the compound, how does the “% DISEASE CONTROL PRU” value (Pythium ultimum) read?
Its value is 100%.

And the “% DISEASE CONTROL PHY” value (Phytophthora capsici)?
The value was 100%.

And the MIC [1]?
The MIC was less than 0.13 µg/mL.

And the MIC [2]?
Its MIC is greater than 250 µg/mL.

And the MIC [3]?
Its MIC is greater than 250 µg/mL.

And the MIC [4]?
Its MIC is 0.25 µg/mL (≈ 0.836 µM).

And the MIC [5]?
The MIC was no more than 0.2 µg/mL.

What about the MIC [6] of the same compound?
Its MIC is greater than 250 µg/mL.

What about the MIC [7] of the same compound?
The MIC was no more than 1 µg/mL.

What about the MIC [8] of the same compound?
The MIC was greater than 250 µg/mL.

And the MIC [9]?
The MIC was no more than 1 µg/mL.

What about the MIC [10] of the same compound?
Its MIC is no more than 1 µg/mL.

And the MIC [11]?
The MIC was no more than 5 µg/mL.

What about the “% DISEASE CONTROL WPM” value [14] of the same compound?
Its value is 90%.

What about the “% DISEASE CONTROL PIR” value (Piricularia oryzae [12]) of the same compound?
Its value is 100%.

And the “% DISEASE CONTROL CDM” value [15]?
Its value is 50%.

And the “% DISEASE CONTROL RB” value (Piricularia oryzae [16])?
Its value is 95%.

And the “% DISEASE CONTROL RMI” value (Rhizoctonia solani)?
The value was 95%.

What about the “% DISEASE CONTROL WGB” value (Septoria nodorum [17]) of the same compound?
The value was 0%.

What about the “% DISEASE CONTROL WLR” value [18] of the same compound?
The value was 90%.

What about the “% DISEASE CONTROL HEL” value (Cochliobolus sativus) of the same compound?
The value was 100%.

And the “% DISEASE CONTROL BOC” value (Botrytis cinerea)?
The value was 100%.

And the “% DISEASE CONTROL SEP” value (Septoria nodorum [13])?
The value was 100%.

What about the “% DISEASE CONTROL XAN” value (Xanthomonas campestris) of the same compound?
Its value is 0%.

What about the “% DISEASE CONTROL FUS” value (Fusarium roseum) of the same compound?
The value was 100%.

What about the “% DISEASE CONTROL TLB” value (Phytophthora infestans) of the same compound?
The value was 0%.

`O=c1oc2cc(Cl)ccc2n1CC#CBr` [Y=6-Cl, X=Br, 3-(3-bromopropargyl)-6-chloro-2-benzoxazolone] was tested. Which “% DISEASE CONTROL PRU” value (Pythium ultimum) did it give?
Its value is 50%.

And the “% DISEASE CONTROL PHY” value (Phytophthora capsici)?
Its value is 0%.

What about the MIC [1] of the same compound?
Its MIC is 32 µg/mL (≈ 112 µM).

What about the MIC [2] of the same compound?
The MIC was greater than 250 µg/mL.

What about the MIC [3] of the same compound?
The MIC was greater than 250 µg/mL.

And the MIC [4]?
Its MIC is 32 µg/mL (≈ 112 µM).

And the MIC [5]?
The MIC was greater than 25 µg/mL.

What about the MIC [6] of the same compound?
Its MIC is greater than 250 µg/mL.

What about the MIC [7] of the same compound?
The MIC was greater than 25 µg/mL.

What about the MIC [8] of the same compound?
Its MIC is greater than 250 µg/mL.

What about the MIC [9] of the same compound?
The MIC was greater than 25 µg/mL.

And the MIC [10]?
The MIC was greater than 25 µg/mL.

What about the MIC [11] of the same compound?
Its MIC is greater than 25 µg/mL.

And the “% DISEASE CONTROL PIR” value (Piricularia oryzae [12])?
The value was 0%.

And the “% DISEASE CONTROL RMI” value (Rhizoctonia solani)?
The value was 0%.

What about the “% DISEASE CONTROL HEL” value (Cochliobolus sativus) of the same compound?
The value was 50%.

What about the “% DISEASE CONTROL BOC” value (Botrytis cinerea) of the same compound?
The value was 50%.

And the “% DISEASE CONTROL SEP” value (Septoria nodorum [13])?
Its value is 0%.

And the “% DISEASE CONTROL XAN” value (Xanthomonas campestris)?
The value was 0%.

And the “% DISEASE CONTROL FUS” value (Fusarium roseum)?
Its value is 0%.

`O=c1oc2ccccc2n1CC#CBr` [Y=H, X=Br, 3-(3-bromopropargyl)-2-benzoxazolone] was tested. Which MIC [1] did it give?
The MIC was greater than 25 µg/mL.

And the MIC [2]?
Its MIC is greater than 250 µg/mL.

And the MIC [3]?
The MIC was greater than 250 µg/mL.

What about the MIC [4] of the same compound?
The MIC was greater than 25 µg/mL.

And the MIC [5]?
Its MIC is greater than 25 µg/mL.

And the MIC [6]?
The MIC was greater than 250 µg/mL.

And the MIC [7]?
Its MIC is greater than 25 µg/mL.

What about the MIC [8] of the same compound?
The MIC was greater than 250 µg/mL.

And the MIC [9]?
Its MIC is greater than 25 µg/mL.

What about the MIC [10] of the same compound?
The MIC was greater than 25 µg/mL.

And the MIC [11]?
The MIC was greater than 25 µg/mL.
